In patent US20200297775A1, “ENHANCED DIRECT CARDIAC REPROGRAMMING” (The J. David Gladstone Institutes, A Testamentary Trust …, priority 2016, published 2020):

B1: BMP4: regulates other aspects of TGF-β signaling (protein, UniProt P12644 293-408, looked up)
Bone morphogenetic protein 4: SPKHHSQRARKKNKNCRRHSLYVDFSDVGWNDWIVAPPGYQAFYCHGDCPFPLADHLNSTNHAIVQTLVNSVNSSIPKACCVPTELSAISMLYLDEYDKVVLKNYQEMVVEGCGCR
B2: WNT3a: activates canonical WNT signaling (protein, UniProt P56704 19-352, looked up)
Protein Wnt-3a: SYPIWWSLAVGPQYSSLGSQPILCASIPGLVPKQLRFCRNYVEIMPSVAEGIKIGIQECQHQFRGRRWNCTTVHDSLAIFGPVLDKATRESAFVHAIASAGVAFAVTRSCAEGTAAICGCSSRHQGSPGKGWKWGGCSEDIEFGGMVSREFADARENRPDARSAMNRHNNEAGRQAIASHMHLKCKCHGLSGSCEVKTCWWSQPDFRAIGDFLKDKYDSASEMVVEKHRESRGWVETLRPRYTYFKVPTERDLVYYEASPNFCEPNPETGSFGTRDRTCNVSSHGIDGCDLLCCGRGHNARAERRREKCRCVFHWCCYVSCQECTRVYDVHTCK
B3: WNT11: activates the non-canonical WNT pathway (protein, UniProt O96014 25-354, looked up)
Protein Wnt-11: IKWLALSKTPSALALNQTQHCKQLEGLVSAQVQLCRSNLELMHTVVHAAREVMKACRRAFADMRWNCSSIELAPNYLLDLERGTRESAFVYALSAAAISHAIARACTSGDLPGCSCGPVPGEPPGPGNRWGGCADNLSYGLLMGAKFSDAPMKVKKTGSQANKLMRLHNSEVGRQALRASLEMKCKCHGVSGSCSIRTCWKGLQELQDVAADLKTRYLSATKVVHRPMGTRKHLVPKDLDIRPVKDSELVYLQSSPDFCMKNEKVGSHGTQDRQCNKTSNGSDSCDLMCCGRGYNPYTDRVVERCHCKYHWCCYVTCRRCERTVERYVCK

What was measured:
[1] = tested on: cardiac fibroblasts; test: Activation or knockdown of TGF-β/WNT signaling during GMT reprogramming; assay type: cell-based, mouse; conditions: added during GMT reprogramming
Description: It was also observed that activating TGF-β or canonical WNT signaling reversed the reprogramming efficiency gains induced by SB431542 or XAV939, respectively. […] Moreover, overexpression of constitutively active SMAD2 or SMAD3 (TGF-β signaling effectors) abolished cardiac reprogramming enhancement by SB431542 (FIG. 15). […] An ˜80% reduction of ALK4 or ALK5 (FIG. 16) enhanced direct cardiac reprogramming, similar to SB431542 (FIG. 16). […] Thus, SB431542 and XAV939 enhance cardiac reprogramming by inhibiting TGF-β and canonical WNT signaling.

[2] = tested on: Thy1+ neonatal cardiac fibroblasts from α-MHC-GFP transgenic mice; test: Drug screening of GMT cardiac reprogramming, α-MHC-GFP reporter, high-content imaging; assay type: cell-based, mouse; conditions: compounds added day 1, read-out 2 weeks
Description: To identify biological pathways that could be manipulated to improve cardiac reprogramming, a chemical biology approach involving an unbiased small molecule library screen was used. Cardiac reprogramming was induced with the recently described polycistronic GMT retrovirus Mef2c-P2A-Gata4-T2A-Tbx5 to ensure that each of the three transcription factors are optimally expressed, as described in detail in Wang et al. (2015) Circ. Res. 116:237-244.
Briefly, mouse cardiac fibroblasts (CF) were isolated from PO-P4 αMHC-GFP transgenic neonates using the migration method as previously described. Burridge et al. (2012) Cell Stem Cell 10:16-28; Ieda et al. (2010) Cell 142:375-386. Hearts were isolated, minced, and onto gelatin-coated plates and incubated in fibroblast explant media (20% FBS in IMOM) for one week at 37° C. The tissue was washed with 2×PBS, digested in 0.05% Trypsin for 5 minutes, and resuspended in fibroblast explant media. Tissues were filtered through a […] filter and pelleted. Pelleted cells were stained for 20 minutes with Thy-1-APC (anti-mouse/rat CD90.1 thy-1.1) (Ebioscience, San Diego, Calif., USA) and washed 2× with PBS as previously described. Ieda et al. (2010) Cell 142:375-386. Cells were sorted for APC^+ cells by fluorescence activated cell sorting (FACS) and plated onto 10 cm gelatin-coated plates and used fresh for all studies without freezing.
Direct conversion of Thy1^+ CFs to iCMs was completed as previously described in Ieda et al. (2010) Cell 142:375-386. Briefly, pMXs-Gata4, pMXs-Mef2c, pMXs-Tbx5, polycistronic pMXs-Mef2c-Gata4-Tbx5 (GMT polycistronic) or pMXs-dsRed were constructed as previously described. Ieda et al. (2010) Cell 142:375-386; Wang, L., et al. (2015) Circ Res 116, 237-244 (2015). Retroviral vectors were packaged using Fugene HD (Roche) and delivered in OptiMEM (10 μg) to 15-cm plates containing ˜80% confluent PlatE cells in fibroblast explant media, as previously described. Qian, L., et al. (2012) Nature 485, 593-59. Viral supernatant was collected 48 hours post-transfection and used to infect cardiac fibroblasts with the addition of 0.6 μg/ml polybrene (Chemicon) and added to cardiac fibroblasts at day −1. After 24 hours, the culture medium was replaced with cardiomyocyte culture medium (iCM medium (Qian, L., et al. (2013) Nature Protocols 8: 1204-1215)) at day 0, and replaced every 3-4 days. Three separate Gata4, Mef2c, and Tbx5 retroviruses were used in the initial drug screening and the in vivo experiments; however for further in vitro experiments following the initial screening the GMT polycistronic retrovirus was used.
For drug screening, Thy1^+ neonatal cardiac fibroblasts from α-MHC-GFP transgenic mice were plated in 384-well plates at a density of 2000 cells/well. Cells were reprogrammed with the GMT retrovirus as described above. At day 1 of reprogramming, the virus was replaced with iCM medium and the compounds were added to the wells using a Biomek liquid-handling robotic station to achieve a 1:1000 dilution of the drug-library concentration. Libraries of 5500 toxicologically tested compounds (e.g., LOPAC, TOCRIS, LONZA, and […]) were screened. At day 14 of reprogramming, the plates were fixed and stained for GFP and Troponin T as described under immunocytochemistry and imaged using high-throughput, high-content imaging with an INCELL system. Data were analyzed using the INCELL image-analysis package.
For immunocytochemical analysis and quantification, samples were fixed using 4% paraformaldehyde (PFA), washed twice in PBS containing 0.1% Triton X-100 (PBST), and blocked with Power Block Universal Blocking Reagent (Biogenex, # HK085-5K) for 15 minutes at room temperature as previously described. Qian et al. (2013) Nature protocols 8:1204-1215. Samples were incubated in a mixture containing primary antibodies diluted in PBST and blocking buffer (1:1) and incubated at 4° C. overnight.

[3] = tested on: active β catenin; test: Western blot, active β catenin; assay type: cell-based
Protocol: (§1) Next, the mechanisms by which the small molecules regulate TGF-β and WNT signaling were investigated. Proteins from cell lysates containing 20 μg of protein were separated by SDS-PAGE and electrophoretically transferred onto polyvinylidene difluoride membranes (BioRad). Membranes were then washed in PBS, treated with blocking buffer (Li-cor), and then incubated with primary antibodies at 4° C. overnight. The following primary antibodies were used: anti-GAPDH antibody loading control (Abcam # ab9484, 0.5 μg/ml), anti-Active β-Catenin antibody (Millipore #05-665, 1:1000), anti-T-Antigen (Abcam # ab16879, 1:1000), and anti-phospho-Smad2/3 (Cell Signaling #8685S, 1:1000). Membranes were washed in PBS and incubated with the appropriate secondary antibodies (Li-Cor, IRDye […]; IRDye 800CW, 1:10,000) for 1 hour at room temperature. Membranes were washed and visualized with an Odyssey Fc Dual-mode Imaging System.

[4] = tested on: cardiac and fibroblast genes; test: qRT-PCR panel of cardiac and fibroblast genes during GMT reprogramming; assay type: cell-based, mouse; conditions: 2 weeks of reprogramming
Protocol: To identify which of the WNT or TGF-β inhibitor compounds most effectively improve reprogramming quality, qRT-PCR was performed for a panel of cardiac and fibroblast genes. Briefly, total RNA was isolated with a commercial kit (Direct-Zol RNA Mini-prep, Zymo Research). Reverse transcription was carried out using a mixture of oligo(dT) and random hexamer primers (SuperScript III First-Strand Synthesis SuperMix for qRT-PCR, ThermoFisher Scientific). Real-time PCR Analysis was conducted with the 7900HT FAST real-time PCR detection system (Applied Biosystems). For high-throughput, real-time PCR analysis, samples were analyzed with the 96.96 Dynamic Array IFC on the Biomark HD system (Fluidigm).

[5] = tested on: mouse cardiac fibroblasts; test: GMT reprogramming efficiency, α-MHC-GFP+ iCMs (dose, timing, FACS); assay type: cell-based
[6] = tested on: SMAD2/3; test: Western blot, phosphorylation of SMAD2/3; assay type: cell-based
Protocol: as §1

[7] = tested on: mouse cardiac fibroblasts; test: Appearance of beating cells, Troponin T staining and sarcomere organization in iCMs; assay type: cell-based; conditions: after GMT infection
Protocol: For immunocytochemical analysis and quantification, samples were fixed using 4% paraformaldehyde (PFA), washed twice in PBS containing 0.1% Triton X-100 (PBST), and blocked with Power Block Universal Blocking Reagent (Biogenex, # HK085-5K) for 15 minutes at room temperature as previously described. Qian et al. (2013) Nature protocols 8:1204-1215. Samples were incubated in a mixture containing primary antibodies diluted in PBST and blocking buffer (1:1) and incubated at 4° C. overnight. The following primary antibodies were used: troponin T, cardiac isoform Ab-1, mouse monoclonal antibody (Thermo Scientific # MS-295-PO, 1:200), monoclonal anti-α-actinin sarcomeric antibody (Sigma Aldrich # A7811, 1/200), and anti-GFP (Thermo Scientific # A11120, 1:200). Samples were washed twice with PBST for 15 minutes each at room temperature and then incubated in a mixture containing secondary antibodies diluted in PBST and blocking buffer (1:1) at room temperature for 1 hour. Samples were washed three times with PBST for 15 minutes each at room temperature and visualized. Stained cells were quantified with ImageJ Imaging Analysis Software. The standard error mean was calculated for all comparisons; p<0.05 was considered statistically significant. […]

| Molecule | effect on reprogramming enhanced by SB431542 and XAV939 [1] | hit in drug screen (Z score over 5) [2] | also measured |
| --- | --- | --- | --- |
| Cc1c[nH]c(-c2cnc(NCCNc3ccc(C#N)cn3)nc2-c2ccc(Cl)cc2Cl)n1 [CHIR99021] | reversed the combined effect | – | – |
| c1ccc2c(-c3cnn4cc(-c5ccc(N6CCNCC6)cc5)cnc34)ccnc2c1 [LDN-193189] | – | top hits | – |
| Oc1nc(-c2ccc(C(F)(F)F)cc2)nc2c1CSCC2 [XAV939] | – | top hits | expression of active β catenin (indicator of WNT activation) [3]: significantly reduced; activating cardiac gene expression ([4]; among WNT inhibitors): most efficient of the WNT inhibitors; most effective dose ([5]; GMT reprogramming efficiency): 5 µM; effect of time of addition on enhancement ([5]; GMT, XAV939): same enhancement effect when added at any time during the first 8 days |
| activin | – | – | effect on reprogramming enhanced by SB431542 [1]: did not have a significant effect |
| NC(=O)c1ccc(-c2nc(-c3ccc4c(c3)OCO4)c(-c3ccccn3)[nH]2)cc1 [SB431542] | – | top hits | downregulating fibroblast gene expression ([4]; among TGF-β inhibitors): most efficient of the TGF-β inhibitors; phosphorylation of SMAD2/3 (indicator of TGF-β activation) [6]: significantly reduced; timing of addition for reprogramming efficiency ([5]; GMT, SB431542 2.6 μM): most effective if added at day 1; appearance of beating cells [7]: 3 weeks |
| O=C(Nc1cccc2cccnc12)c1ccc(N2C(=O)[C@@H]3[C@H](C2=O)[C@@H]2C=C[C@H]3C2)cc1 [IWR1] | – | top hits | – |
| TGF-β1 ligand: excess TGF-β1 ligand added during reprogramming | partially inhibited the combined effect | – | effect on reprogramming enhanced by SB431542 [1]: reversed the effect of SB431542 |
| O=c1c(O)c(-c2cc(O)c(O)c(O)c2)oc2cc(O)cc(O)c12 [myricetin] | – | top hits | – |
| CN1C(C(=O)Nc2ccccn2)=C(O)c2ccccc2S1(=O)=O [piroxicam] | – | top hits | – |
| NC(=O)c1ccc(-c2nc(-c3ccc4c(c3)OCCO4)c(-c3ccccn3)[nH]2)cc1 [D4476] | – | top hits | – |
| B1 | – | – | effect on reprogramming enhanced by SB431542 [1]: did not significantly affect cardiac reprogramming |
| B2 | partially blocked the effects | – | – |
| B3 | did not have a significant effect | – | – |
